# From patent US11395490B2, “Herbicidal composition” (SYNGENTA CROP PROTECTION, LLC, priority 2005, dated 2022)
# How the values were obtained:
# Format in all cases: in vivo
# Settings in all cases: 21 days after treatment
# Maize (ZEAMX) [1] = experiment: Post-emergence test, Maize
# Source text: (§1) The herbicidal action to be expected, We, for a given combination of two herbicides can be calculated as follows (see COLBY, S. R. “Calculating synergistic and antagonistic response of herbicide combinations”. Weeds 15, pages 20-22; 1967): We=X+[Y·(100−X)/100] wherein: X=% herbicidal action in the case of treatment with active ingredient (A) using an application rate of p kg per hectare, in comparison with untreated control (=0%). Y=% herbicidal action in the case of treatment with active ingredient (B) using an application rate of q kg per hectare, in comparison with untreated control. We=expected herbicidal action (% herbicidal action in comparison with untreated control) after treatment with active ingredient (A) and active ingredient (B) at a rate of application of p+q kg of active ingredient per hectare. If the action actually observed is greater than the expected value We, there is a synergistic effect. Trial Description, Pre-Emergence Test: Monocotyledonous and dicotyledonous test plants are sown in standard soil in plastics pots. The plants tested were: Maize (ZEAMX), Ipomea purpurea (PHBPU), Euphorbia heterophylla (EPHHL), Panicum millenacearum (PANMI). Immediately after sowing, the test compounds in aqueous suspension are applied by spraying (200 litres of water/ha). (A) was formulated as a SC50, and (B1), (B2) and (B3) were formulated as WP25; 1% adjuvant crop oil concentrate (Agridex) (v/v) was added to all treatments. The compounds were applied alone and in combination as tank mixtures. The rates of application depend on the optimum concentrations determined under field conditions and greenhouse conditions. The test plants are then cultivated in a greenhouse under optimum conditions. Evaluation of the tests is made after 21 days (% action, 100%=plants have died, 0%=no phytotoxic action).
# (§2) Trial Description Post-Emergence Test: The test plants are raised in plastics pots under greenhouse conditions as far as the 2- to 3-leaf stage. A standard soil is used as the cultivation substrate. The plants tested were: Maize (ZEAMX), Ipomea purpurea (PHBPU), Sorghum vulgare (SORVU), Euphorbia heterophylla (EPHHL), Panicum millenacearum (PANMI). At the 2- to 3-leaf stage, the herbicides are applied individually and as mixtures to the test plants. The test compounds are applied in the form of an aqueous suspension in 200 litres of water/ha. (A) was formulated as a SC50, and (B1), (B2) and (B3) were formulated as WP25; 1% adjuvant crop oil concentrate (Agridex) (v/v) was added to all treatments. The compounds were applied alone and in combination as tank mixtures. The rates of application depend on the optimum concentrations determined under field conditions and greenhouse conditions. Evaluation of the tests is made after 21 days (% action, 100%=plants have died, 0%=no phytotoxic action).
# Sorghum vulgare (SORVU) = experiment: Post-emergence test, Sorghum vulgare
# Source text: as §1, §2
# [2] = tested on: Panicum millenacearum (PANMI); experiment: Post-emergence test, Panicum millenacearum
# Source text: as §1, §2
# Maize (ZEAMX) [3] = experiment: Pre-emergence test, Maize
# Source text: as §1
# [4] = tested on: Euphorbia heterophylla (EPHHL); experiment: Pre-emergence test, Euphorbia heterophylla
# Source text: as §1
# Ipomea purpurea (PHBPU) [5] = experiment: Pre-emergence test, Ipomea purpurea
# Source text: as §1
# [6] = tested on: Euphorbia heterophylla (EPHHL); experiment: Post-emergence test, Euphorbia heterophylla
# Source text: as §1, §2
# [7] = tested on: Panicum millenacearum (PANMI); experiment: Pre-emergence test, Panicum millenacearum
# Source text: as §1
# Ipomea purpurea (PHBPU) [8] = experiment: Post-emergence test, Ipomea purpurea
# Source text: as §1, §2
structure (smiles),measurement,setting,value
"COCCOCc1nc(C(F)(F)F)ccc1C(=O)C1C(=O)C2CCC(C2)C1=O (stereo not drawn) [(B1), 4-hydroxy-3-[[2-[(2-methoxyethoxy)methyl]-6-(trifluoromethyl)-3-pyridinyl]carbonyl]-bicyclo[3.2.1]oct-3-en-2-one]",Observed plant damage ZEAMX,Maize (ZEAMX) [1]; rate 18.75 g/ha,0%
same,Observed plant damage ZEAMX,Maize (ZEAMX) [1]; rate 37.5 g/ha,0%
same,Observed plant damage ZEAMX,Maize (ZEAMX) [1]; rate 75 g/ha,0%
same,Observed plant damage ZEAMX,Maize (ZEAMX) [1]; rate 150 g/ha,0%
same,Observed plant damage ZEAMX,Maize (ZEAMX) [1]; rate 300 g/ha,0%
same,Observed plant damage SORVU,Sorghum vulgare (SORVU); rate 18.75 g/ha,0%
same,Observed plant damage SORVU,Sorghum vulgare (SORVU); rate 37.5 g/ha,0%
same,Observed plant damage SORVU,Sorghum vulgare (SORVU); rate 75 g/ha,0%
same,Observed plant damage SORVU,Sorghum vulgare (SORVU); rate 150 g/ha,10%
same,Observed plant damage SORVU,Sorghum vulgare (SORVU); rate 300 g/ha,35%
same,Observed plant damage PANMI,[2]; rate 18.75 g/ha,60%
same,Observed plant damage PANMI,[2]; rate 37.5 g/ha,70%
same,Observed plant damage PANMI,[2]; rate 75 g/ha,75%
same,Observed plant damage PANMI,[2]; rate 150 g/ha,70%
same,Observed plant damage PANMI,[2]; rate 300 g/ha,90%
same,Observed plant damage ZEAMX,Maize (ZEAMX) [3]; rate 18.75 g/ha,0%
same,Observed plant damage ZEAMX,Maize (ZEAMX) [3]; rate 37.5 g/ha,0%
same,Observed plant damage ZEAMX,Maize (ZEAMX) [3]; rate 75 g/ha,0%
same,Observed plant damage ZEAMX,Maize (ZEAMX) [3]; rate 150 g/ha,0%
same,Observed plant damage ZEAMX,Maize (ZEAMX) [3]; rate 300 g/ha,0%
same,Observed plant damage EPHHL,[4]; rate 18.75 g/ha,0%
same,Observed plant damage EPHHL,[4]; rate 37.5 g/ha,0%
same,Observed plant damage EPHHL,[4]; rate 75 g/ha,75%
same,Observed plant damage EPHHL,[4]; rate 150 g/ha,75%
same,Observed plant damage EPHHL,[4]; rate 300 g/ha,100%
same,Observed plant damage PHBPU,Ipomea purpurea (PHBPU) [5]; rate 18.75 g/ha,0%
same,Observed plant damage PHBPU,Ipomea purpurea (PHBPU) [5]; rate 37.5 g/ha,0%
same,Observed plant damage PHBPU,Ipomea purpurea (PHBPU) [5]; rate 75 g/ha,0%
same,Observed plant damage PHBPU,Ipomea purpurea (PHBPU) [5]; rate 150 g/ha,0%
same,Observed plant damage PHBPU,Ipomea purpurea (PHBPU) [5]; rate 300 g/ha,85%
same,Observed plant damage EPHHL,[6]; rate 18.75 g/ha,65%
same,Observed plant damage EPHHL,[6]; rate 37.5 g/ha,80%
same,Observed plant damage EPHHL,[6]; rate 75 g/ha,90%
same,Observed plant damage EPHHL,[6]; rate 150 g/ha,90%
same,Observed plant damage EPHHL,[6]; rate 300 g/ha,98%
same,Observed plant damage PANMI,[7]; rate 18.75 g/ha,15%
same,Observed plant damage PANMI,[7]; rate 37.5 g/ha,65%
same,Observed plant damage PANMI,[7]; rate 75 g/ha,80%
same,Observed plant damage PANMI,[7]; rate 150 g/ha,100%
same,Observed plant damage PANMI,[7]; rate 300 g/ha,100%
same,Observed plant damage PHBPU,Ipomea purpurea (PHBPU) [8]; rate 18.75 g/ha,30%
same,Observed plant damage PHBPU,Ipomea purpurea (PHBPU) [8]; rate 37.5 g/ha,50%
same,Observed plant damage PHBPU,Ipomea purpurea (PHBPU) [8]; rate 75 g/ha,55%
same,Observed plant damage PHBPU,Ipomea purpurea (PHBPU) [8]; rate 150 g/ha,70%
same,Observed plant damage PHBPU,Ipomea purpurea (PHBPU) [8]; rate 300 g/ha,70%
